Data as given in EP2746253A1, “Novel compounds with skin lightening properties” (Unilever PLC, priority 2012, dated 2014).

Columns and labels:
[1] = system: B16 mouse melanoma cells; experiment: Inhibition of pigment (melanin) production in B16 mouse melanoma cells; format: cell-based; settings: 72 h, 3 days incubation, average of 4 wells, read-out: % of melanin inhibition in B16 mouse melanoma cells assay compared to control, normalised to protein levels
Description: B16 mouse melanoma cells are widely available for example by purchase from the American Type Culture Collection (ATCC) and are routinely used by those skilled in the art to assay pigment production. The cells make and secrete melanin, a dark pigment, into the medium as the cells approach confluence. Methods for general cell culture may be easily accessed in text books and on-line (eg General Techniques of Cell Culture; M.A. Harrison and I.F. Rae Authors; Cambridge University Press ISBN 052157496X)
B16 mouse melanoma cells were maintained in cell culture and used for tests in antibiotic free Lonza Biowhittaker (BE12-662F) media (50ml fetal bovine serum and 5 ml I-glutamine (Sigma G7513) per 500 ml bottle).
The cells were maintained and grown at 37°C in an atmosphere of 5 % CO2. Trypsin/ethylene diamine tetraacetic acid (EDTA; Sigma T3924) and Dulbeccos Phosphate Buffered Saline (DPBS; Sigma D8537) were used to passage the cells as they approached ≥80 % confluence, diluting the cells by one tenth for maintenance culture.
For the pigment reduction assays, 48 well plates were seeded with 2.5 x 10^4 cells per well in phenol red-free, antibiotic-free medium (Sigma D1145) supplemented with foetal bovine serum and glutamine. Care was taken to make sure less adherent cells were not lost during the seeding process.
The plates were incubated overnight at 37°C/5 % CO2 atmosphere. The media was removed from the plates one-by-one and fresh media containing the test compound or control additions was added to each well. Compounds were prepared as stock solutions at 1000 fold higher concentration than that used for assay in dimethylsulphoxide (DMSO). Control media additions included 0.1 % DMSO, media alone and positive control(s) known to inhibit pigment production such as ketoconazole or 4-ethylresorcinol. The cells were incubated at 37°C/5 % CO2 atmosphere for a further 3 days. Cultures were assessed for melanin secretion into the medium and, as controls for toxicity of the added ingredients, for protein level and metabolic activity. A reduction in metabolic activity or protein levels is indicative of cell toxicity. The most desirable compounds therefore in the assay are those that show melanin production inhibition without loss of metabolic function or reduction in protein levels.
Media was removed from the cell plates and put into storage plates. The plates were sealed until assayed later in the day. Melanin was measured by determining optical density at 450 nm and making a comparison against melanin standards (Sigma M8631) made up anew on each day of testing. The standards used were 1000 µg/ml; 500 µg/ml; 250 µg/ml; 125 µg/ml; 62.5 µg/ml; 31.25 µg/ml; and 15.625 µg/ml.
Without delay, 100 µl of RIPA buffer (Sigma R0278) with protease inhibitor (Sigma S8830- use as per Sigma instructions) was added to the wells and the plates frozen at -20°C until the protein assessment was carried out. For example Pierce BCA Protein Assay (Thermo Scientific # 23225) can be used as per manufacturer's instructions with 10 µl of sample for each replicate.
Control and test melanin values were calculated as the average of results from 4 wells, corrected for protein levels in the cultures. The percent reduction in melanin production was calculated for each compound concentration, setting the melanin production of control incubations (vehicle alone) at 100%. Compound concentrations causing > 20% loss of WST activity are considered toxic and not considered to be effective melanin inhibitors. A compound causing > 10% reduction of melanin production into the medium was considered to be an inhibitor. Table 1: B16 mouse melanoma cells assay results for compounds of the first aspect of the invention

[2] = system: Melanoderms™; experiment: Pigment production by Living Skin Equivalents (Melanoderms); format: cell-based; settings: Homo sapiens, 336 h, 14 days, normalized to protein levels, read-out: Inhibition of melanin production (%) in Melanoderms™ compared to control
Description: So called reconstructed pigmented 'skin' cultures containing keratinocytes and melanocytes are commercially available and for example can be purchased from MatTek Corp, 200, Homer Avenue, Ashland, MA, USA, under the trade name Melanoderm™. Melanoderms™ (catalogue reference MEL-300) containing melanocytes from […] donor skin were maintained in EPI-100-NMM113 media following the manufacturer's instructions and using standard methods for the maintenance of cultured mammalian cells under aseptic conditions. The Melanoderm™ cultures were treated with test agents for a total of 14 days. During the 14 day culture period the melanocytes in the Melanoderm™ cultures synthesise melanin in specialised vesicular structures called melanosomes. The pigmented melanosomes are transferred to the adjacent keratinocytes and the transferred-melanosomes tend to accumulate over the nucleus of the keratinocytes. This process is the same as occurs in skin in vivo and accordingly the Melanoderm™ culture is considered to be a very good test 'skin tissue' to mimic the effect of the skin pigmentation process in vivo. A compound that leads to a reduction in melanin production in the Melanoderm™ culture over 14 days by 10 % or more is considered to have a positive pigment reducing effect. It is important that the reduction in pigment occurs without substantive loss of cell viability such that the inhibitory effect of the test compound is due to its biological function rather than due to cell toxicity.
Culture media changes and re-dosing of compounds at selected concentrations took place every 2 or 3 days during the test period. Melanoderm™ cultures were also treated with control materials including the vehicle (dimethylsulphoxide; DMSO) used to dissolve the test material and a positive control material known to lead to the synthesis of reduced amounts of melanin in the cultures. Ketoconazole and/or 4-ethylresorcinol were used as positive controls. After 14 days culture, transmitted-light microscopy images were captured for every culture using a Leica DM IL microscope at x20 magnification.
The cell viability of the cultures was assessed using the so called WST-1 (Water Soluble Tetrazolium Salt -1) assay purchased from Roche Applied Science and following the manufacturer's instructions. The stable tetrazolium salt WST-1 is cleaved to a soluble formazan dye by a complex cellular mechanism that occurs primarily at the cell surface. This bioreduction is largely dependent on the glycolytic production of NADPH in viable cells. Therefore, the amount of soluble formazan dye formed in the culture medium directly correlates to the number of metabolically active cells in the culture. Cultures were incubated with WST-1 in the medium for 1 hour and production of formazan measured at 450 nm using a spectrophotometer plate reader, eg a BMG Labtech FLUOstar plate reader. Cultures were considered 'viable' if they generated greater than 80 % of the control value of formazan product. Subsequently the culture was washed briefly in phosphate buffer solution (PBS) and total melanin and protein extracted together from each culture using 250 µl Solvable (trademark, Perkin Elmer product 6NE9100) reagent at 60°C overnight as recommended by the manufacturer. The total protein content using a sample of the extracts was determined using the so called BCA (bicinchoninic acid) assay. The BCA assay may be purchased from Pierce Chemical Company and conducted following the manufacturer's instructions. Melanin was determined by measuring the absorbance at 485 nm, for example using a BMG Labtech FLUOstar plate reader. The amount of melanin extracted from each culture was determined by reference to a standard synthetic-melanin curve (Sigma Aldrich Chemical Co; catalogue reference M8631).
Melanin levels in each culture were expressed as values normalised to the amount of protein in the cultures and compared to control vehicle treated cultures. […]

SMILES: COC(=O)c1ccc(CN/C(N)=N/N=C/c2ccc3ccccc3n2)cc1 [NC-0511, (E)-1-amino-N-[4-(methoxycarbonyl)benzyl]-1-[(2E)-(quinolin-2-ylmethylidene)hydrazinylidene]methanaminium iodide]
- inhibition at 1 µM [1]: 54%
- inhibition at 5 µM [1]: 100%
- inhibition at 5 µM [2]: 27%
- inhibition at 10 µM [2]: 19%

SMILES: Cc1ccc2[nH]c3c(c2c1)CCC/C3=N/N=C(\N)NCc1ccc(F)cc1 [NC-0536, (E)-1-amino-N-(4-fluorobenzyl)-1-{(2Z)-[6-methyl-2,3,4,9-tetrahydro-1H-carbazol-1-ylidene]hydrazinylidene}methanaminium iodide]
- inhibition at 1 µM [1]: 24%
- inhibition at 5 µM [1]: 8%

SMILES: COC(=O)c1ccc(CN/C(N)=N/N=C/c2csc3ccccc23)cc1 [NC-0510, (E)-1-amino-1-[(2E)-(1-benzothiophen-3-ylmethylidene)hydrazinylidene]-N-[4-(methoxycarbonyl)benzyl]methanaminium iodide]
- inhibition at 1 µM [1]: 17%
- inhibition at 5 µM [1]: 29%
- inhibition at 5 µM [2]: 18%
- inhibition at 10 µM [2]: 19%

SMILES: COc1ccc(CN/C(N)=N/N=C/c2cc3ccccc3o2)cc1 [NC-0531, (E)-1-amino-1-[(2E)-(1-benzofuran-2-ylmethylidene)hydrazinylidene]-N-(4-methoxybenzyl)methanaminium iodide]
- inhibition at 1 µM [1]: 39%
- inhibition at 5 µM [1]: 39%
- inhibition at 5 µM [2]: 35%
- inhibition at 10 µM [2]: 40%

SMILES: Cc1ccc2[nH]c3c(c2c1)CCC/C3=N/N=C(\N)NCc1c(Cl)cccc1Cl [NC-0537, (E)-1-amino-N-(2,6-dichlorobenzyl)-1-{(2Z)-[6-methyl-2,3,4,9-tetrahydro-1H-carbazol-1-ylidene]hydrazinylidene}methanaminium iodide]
- inhibition at 1 µM [1]: 51%
- inhibition at 5 µM [1]: 37%

SMILES: COc1ccc(CN/C(N)=N/N=C/c2csc3ccccc23)cc1 [NC-0528, (E)-1-amino-1-[(2E)-(1-benzothiophen-3-ylmethylidene)hydrazinylidene]-N-(4-methoxybenzyl)methanaminium iodide]
- inhibition at 1 µM [1]: 3%
- inhibition at 5 µM [1]: 73%

SMILES: N/C(=N\N=C\c1ccc(-c2ccncc2)cc1)NCc1ccc(O)cc1 [NC-0498, (E)-1-amino-N-(4-hydroxybenzyl)-1-{(2E)-[4-(pyridin-4-yl)benzylidene]hydrazinylidene}methanaminium iodide]
- inhibition at 1 µM [1]: 0%
- inhibition at 5 µM [1]: 33%
- inhibition at 10 µM [2]: 53%

SMILES: N/C(=N\N=C\c1cc2ccccc2o1)NCc1ccccc1 [NC-0519, (E)-1-amino-1-[(2E)-(1-benzofuran-2-ylmethylidene)hydrazinylidene]-N-benzylmethanaminium iodide]
- inhibition at 1 µM [1]: 71%
- inhibition at 5 µM [1]: 71%
- inhibition at 5 µM [2]: 40%
- inhibition at 10 µM [2]: 47%

SMILES: COC(=O)c1ccc(CN/C(N)=N/N=C/c2cc3ccccc3s2)cc1 [NC-0522, (E)-1-amino-1-[(2E)-(1-benzothiophen-2-ylmethylidene)hydrazinylidene]-N-[4-(methoxycarbonyl)benzyl]methanaminium iodide]
- inhibition at 1 µM [1]: 59%
- inhibition at 5 µM [1]: 53%
- inhibition at 5 µM [2]: 34%
- inhibition at 10 µM [2]: 31%

SMILES: COC(=O)c1cccc(CN/C(N)=N/N=C/c2csc3ccccc23)c1 [NC-0525, (E)-1-amino-1-[(2E)-(1-benzothiophen-3-ylmethylidene)hydrazinylidene]-N-[3-(methoxycarbonyl)benzyl]methanaminium iodide]
- inhibition at 1 µM [1]: 18%
- inhibition at 5 µM [1]: 100%

SMILES: N/C(=N\N=C\c1csc2ccccc12)NCc1ccc(Cl)c(Cl)c1 [NC-0515, (E)-1-amino-1-[(2E)-(1-benzothiophen-3-ylmethylidene)hydrazinylidene]-N-(3,4-dichlorobenzyl)methanaminium iodide]
- inhibition at 1 µM [1]: 0%
- inhibition at 5 µM [1]: 54%

SMILES: COC(=O)c1ccc(CN/C(N)=N/N=C/c2cc3ccccc3o2)cc1 [NC-0521, (E)-1-amino-1-[(2E)-(1-benzofuran-2-ylmethylidene)hydrazinylidene]-N-[4-(methoxycarbonyl)benzyl]methanaminium iodide]
- inhibition at 1 µM [1]: 46%
- inhibition at 5 µM [1]: 64%
- inhibition at 5 µM [2]: 35%

SMILES: N/C(=N\N=C\c1csc2ccccc12)NCc1ccc(F)cc1 [NC-0517, (E)-1-amino-1-[(2E)-(1-benzothiophen-3-ylmethylidene)hydrazinylidene]-N-(4-fluorobenzyl)methanaminium iodide]
- inhibition at 1 µM [1]: 32%
- inhibition at 5 µM [1]: 35%
- inhibition at 5 µM [2]: 4%
- inhibition at 10 µM [2]: 20%
